Article PMC6931124, “NPY1R-targeted peptide-mediated delivery of a dual PPARα/γ agonist to adipocytes enhances adipogenesis and prevents diabetes progression” (Molecular Metabolism, 2019)

Experiments:
SGBS preadipocytes = test: AdipoRed adipogenesis assay, SGBS; type: cell-based, human; details: 24 h; tesa 10/25/100 μM, tesa-NPY 100 μM; AdipoRed fluorescence, DMSO = 100%; n = 3 in quadruplicate
Protocol: 3T3-L1 or SGBS cells were seeded into 96-well plates and grown to complete confluency (set as day 0). On day 2 of confluence, the 3T3-L1 cells were differentiated by DMEM High Glucose Medium supplemented with 10% (v/v) not-heat inactivated FCS, 0.5 mM IBMX, 167 nM human insulin, and 1 μM dexamethasone (differentiation medium). On day 4, the medium was replaced by insulin medium (DMEM High Glucose Medium, 10% not-heat inactivated FCS, and 167 nM human insulin). On day 6, the medium was changed to standard culture medium and changed every other day until full differentiation was achieved (on day 8). The SGBS cells were differentiated as previously described. […] On day 4, the medium was replaced by 3FC medium (DMEM High Glucose Medium and Hams F12 (1:1 (v/v))) without FCS and supplemented with 0.01 mg human apo-transferrin, 20 nM human insulin, triiodo-L-thyronine, and 100 nM hydrocortisone. The medium was changed every second day until full differentiation was achieved (day 10). […]
(A, B) Cells were differentiated and stimulated according to the protocol depicted for 3T3-L1 (A) and for SGBS (B). […] (E,F) Expression of adipocyte-enriched genes in 3T3-L1 (E) or SGBS (F) adipocytes analyzed by qPCR. […] Statistical significances refer to DMSO-treated cells and were determined by one-way analysis of variance (ANOVA) followed by Dunnett's multiple comparison test, *≤0.05, **p ≤ 0.01, ***p ≤ 0.001.

3T3-L1 cells = test: qRT-PCR of adipocyte-marker genes, 3T3-L1; type: cell-based, murine; details: qPCR, vs DMSO; n ≥ 3
Protocol: (§1) The 3T3-L1 or SGBS cells were seeded into 6-well plates and differentiated as previously described. Tesa or peptides were added to the differentiation medium at a concentration of 100 μM on day 2, followed by 12 h or 24 h incubation. On day 4, the cells were washed two times with PBS, harvested by trypsinization, and stored at −70 °C until RNA isolation was performed. […] N ≥ 3 independent experiments with two replicates were performed. For the cell culture experiments, the data were analyzed according to the 2^−ΔΔCt method using 36B4 or GAPDH as housekeeping genes and DMSO treatment as a control. Liver mRNA expression was calculated relative to 18sRNA, which was used as an internal control due to its resistance to glucose-dependent regulation. The mRNA levels were quantified using the standard curve method of QuantStudio 6 Flex software (Applied Biosystems, Foster City, CA, USA), determining the crossing points of the individual samples using an algorithm that identifies the first turning point of the fluorescence curve. Amplification of the specific transcripts was confirmed by the melting curve profiles (cooling the sample to 68 °C and heating slowly to 95 °C while measuring the fluorescence) at the end of each PCR [53].
(§2) (A, B) Cells were differentiated and stimulated according to the protocol depicted for 3T3-L1 (A) and for SGBS (B). […] Bars represent mean ± SEM from n = 3 independent experiments performed in quadruplicates. Measurements were normalized using DMSO (vehicle)-treated cells (set to 100%). Statistical significances refer to vehicle-treated cells. (E,F) Expression of adipocyte-enriched genes in 3T3-L1 (E) or SGBS (F) adipocytes analyzed by qPCR. Values represent mean ± SEM from n ≥ 3 independent experiments performed in duplicates. […] Statistical significances refer to DMSO-treated cells and were determined by one-way analysis of variance (ANOVA) followed by Dunnett's multiple comparison test, *≤0.05, **p ≤ 0.01, ***p ≤ 0.001.

SGBS cells = test: qRT-PCR of adipocyte-marker genes, SGBS; type: cell-based, human; details: qPCR, vs DMSO; n ≥ 3
Protocol: as §1, §2

Plasma triglycerides = type: in vivo; details: db/db mice, 2.5 μmol/kg/day, 8 days; n = 5
Protocol: All of the experiments were performed according to the animal ethical laws of the state Saxony, Germany, and were approved by the local animal ethics review board (Landesdirektion Sachsen, Leipzig, Germany). Female db/db mice 12–15 weeks of age were purchased from Taconic (Denmark) and housed in groups of 5 in temperature- and humidity-controlled facilities in a 12 h:12 h light–dark cycle and had free access to tap water and food (regular chow, Sniff, Soest, Germany). Three out of seven groups served as controls (N = 15, see Table 1). The 5 db/db mice were untreated and 10 db/db mice were vehicle treated either orally or intraperitoneally (i.p.). One additional group (n = 5) of lean C57BL/6NTac mice was used as a metabolically healthy control group. […]
Serum insulin (mouse insulin ELISA, Mercodia, Uppsala, Sweden), adiponectin (mouse adiponectin ELISA, AdipoGen, San Diego, CA, USA), leptin (mouse leptin ELISA, Crystal Chem, Downers Grove, IL, USA), and Mcp-1 (mouse/rat CCL2/JE/Mcp-1 Quantikine ELISA, R&D Systems, Minneapolis, MN, USA) levels were analyzed via ELISA according to the manufacturer's instructions. Serum concentrations of TG, FFA, and cholesterol were measured by an automatic chemical analyzer at the Institute of Laboratory Medicine and Clinical Chemistry.

ob/ob mice = details: free systemically administered tesa; ref [43]; cited from earlier work
[1] = cited from earlier work
Text: The dual PPARα/γ agonist tesaglitazar (tesa), in contrast, contains a carboxyl function suitable for synthesis. […] The clinical investigation of tesa was discontinued in phase III because of safety concerns regarding ...

[2] = parameters: method as in Ljung et al. [74]; details: ref Ljung et al. [74]; cited from earlier work
Text: In the present study, we used db/db mice to evaluate the anti-diabetic potency of the peptide conjugate, as these mice are known to develop severe insulin resistance and hypertriglyceridemia.

CCO[C@@H](Cc1ccc(OCCc2ccc(OS(C)(=O)=O)cc2)cc1)C(=O)O [tesa, tesaglitazar]
adipogenesis (triglyceride content), SGBS (SGBS preadipocytes): enhanced adipogenesis in both cell lines
Cidec expression, 3T3-L1 (3T3-L1 cells): enhanced
Fabp4 expression, 3T3-L1 (3T3-L1 cells): enhanced
adiponectin expression, 3T3-L1 (3T3-L1 cells): upregulated
Cidec expression, SGBS (SGBS cells): enhanced the expression of adiponectin, Fabp4, and Cidec
Fabp4 expression, SGBS (SGBS cells): only Fabp4 induction by tesa reached significant differences
adiponectin expression, SGBS (SGBS cells): enhanced the expression of adiponectin, Fabp4, and Cidec
triglycerides (Plasma triglycerides): normalization
anti-diabetic effect in ob/ob mice (ob/ob mice): reduce hypertriglyceridemia, hyperinsulinemia, and hyperglycemia in ob/ob mice
insulin resistance ([1]; mice and humans, ref [41, 42, 43]): reduce insulin resistance in mice and humans
clinical safety ([1]; phase III, ref [16, 44]): discontinued in phase III because of safety concerns regarding renal dysfunction
weight gain in treated animals [2]: does not lead to weight gain in treated animals
